Patent publication US7737120B2 (Aicuris GmbH & Co. KG, priority 2004, dated 2010)
Entries after “also recorded” stand apart in the source; their conditions may differ.

Legend:
subtilisin = subtilisin (1:50) in cleavage buffer (0.1 M ammonium hydrogencarbonate/0.5 M urea pH 8) with methanol; conditions: 37° C., up to 24 h
papain = papain (1:50) in cleavage buffer (0.1 M sodium phosphate/10 mM cysteine, 2 mM EDTA pH 6.5) with methanol; conditions: 37° C., up to 24 h
thermolysin [1] = assay: thermolysin (1:50) in cleavage buffer (0.1 M ammonium hydrogencarbonate/0.5 M urea pH 8) with methanol; conditions: 37° C., up to 24 h
chymotrypsin [2] = assay: chymotrypsin (1:50) in cleavage buffer (0.1 M ammonium hydrogencarbonate/0.5 M urea pH 8) with methanol; conditions: 37° C., up to 24 h
bromelain = bromelain (1:50) in cleavage buffer (0.1 M sodium phosphate, 10 mM cysteine, 2 mM EDTA pH 6.5) with methanol; conditions: 37° C., up to 24 h
chymotrypsin [3] = assay: preparative cleavage, chymotrypsin (1:25) in cleavage buffer (0.1 M ammonium hydrogencarbonate/0.5 M urea pH 8) with methanol; conditions: 37° C., up to about 70 min
proteinase K = proteinase K (1:50) in cleavage buffer (0.1 M sodium tetraborate pH 9) with methanol; conditions: 37° C., up to 24 h
thermolysin [4] = assay: thermolysin (1:50) in cleavage buffer (0.1 M tris(hydroxymethyl)aminomethane/5 mM calcium chloride pH 7.45) with methanol; conditions: 37° C., up to 24 h
pepsin = assay: pepsin; conditions: cited from earlier work
[5] = the buffer used (enzymatic digestion experiments)
[6] = test system: Gram-positive aerobic and anaerobic bacteria; conditions: statement in words, background section; cited from earlier work
[7] = test system: pepsin, trypsin, chymotrypsin and mucosal peptidase; conditions: cited from earlier work

| Substance | fragment found (subtilisin) | fragment found (papain) | fragment found (thermolysin [1]) | fragment found (chymotrypsin [2]) | fragment found (bromelain) | fragment found (chymotrypsin [3]) | fragment found (proteinase K) | fragment found (thermolysin [4]) | not cleaved (pepsin) | fragment found [5] | activity against Gram-positive aerobic and anaerobic bacteria [6] | enzymatic digestion [7] |
| --- | --- | --- | --- | --- | --- | --- | --- | --- | --- | --- | --- | --- |
| D-Leu-Leu-Ala(3-cyclohexyl)-Leu(OH)-Leu-D-Arg-Ile-allo-Thr-Gly-Asn(OH)-Ser | Peptide 4-11 (Leu(OH)-Leu-Arg-Ile-(allo)Thr-Gly-Asn(OH)-Ser); also recorded: Peptide 1-3 (Leu-Leu-PTHAla(3-cyclohexyl)*) | Peptide 5-11 (Leu-Arg-Ile-(allo)Thr-Gly-Asn(OH)-Ser); also recorded: Peptide 5-9 (Leu-Arg-Ile-(allo)Thr-Gly); also recorded: Peptide 10-11 (Asn(OH)-Ser); also recorded: Peptide 1-4 (Leu-Leu-PTHAla(3-cyclohexyl)*-Leu(OH)) | Peptide 1-2 (Leu-Leu) | Peptide 4-11 (Leu(OH)-Leu-Arg-Ile-(allo)Thr-Gly-Asn(OH)-Ser); also recorded: Peptide 1-3 (Leu-Leu-PTHAla(3-cyclohexyl)*); also recorded: deamidated form (1-11); also recorded: deamidated form (4-11) | Peptide 1-9 (Leu-Leu-PTHAla(3-cyclohexyl)*-Leu(OH)-Leu-Arg-Ile-(allo)Thr-Gly); also recorded: Peptide 10-11 (Asn(OH)-Ser) | fragment 1-3 (LL(3-cyclohexyl)A); also recorded: fragment 4-11 |  |  |  |  |  |  |
| D-Leu-Leu-Phe-Leu(OH)-Leu-D-Arg-Ile-allo-Thr-Gly-Asn(OH)-Ser | Peptide 4-11 (Leu(OH)-Leu-Arg-Ile-(allo)Thr-Gly-Asn(OH)-Ser); also recorded: Peptide 1-3 (Leu-Leu-Phe) | Peptide 5-11 (Leu-Arg-Ile-(allo)Thr-Gly-Asn(OH)-Ser); also recorded: Peptide 5-9 (Leu-Arg-Ile-(allo)Thr-Gly); also recorded: Peptide 10-11 (Asn(OH)-Ser); also recorded: Peptide 1-4 (Leu-Leu-Phe-Leu(OH)) |  | Peptide 4-11 (Leu(OH)-Leu-Arg-Ile-(allo)Thr-Gly-Asn(OH)-Ser); also recorded: Peptide 1-3 (Leu-Leu-Phe) | Peptide 1-9 (Leu-Leu-Phe-Leu(OH)-Leu-Arg-Ile-(allo)Thr-Gly); also recorded: Peptide 10-11 (Asn(OH)-Ser) | fragment 4-11; also recorded: fragment 1-3 (LLF) | Peptide 4-11 (Leu(OH)-Leu-Arg-Ile-(allo)Thr-Gly-Asn(OH)-Ser); also recorded: Peptide 5-11 (Leu-Arg-Ile-(allo)Thr-Gly-Asn(OH)-Ser) | Peptide 3-11 (Phe-Leu(OH)-Leu-Arg-Ile-(allo)Thr-Gly-Asn(OH)-Ser); also recorded: Peptide 1-2 (Leu-Leu) |  |  |  |  |
| D-Leucyl-L-leucyl-[(3R)-3-hydroxy-L-phenylalanyl)]-[(3R)-3-hydroxy-L-leucyl]-L-leucyl-D-arginyl-L-isoleucyl-L-allothreonyl-glycyl-[(3S)-3-hydroxy-L-asparaginyl]-L-serine-C1^0.11-O3^0.3-lactone bistrifluoroacetate |  |  |  |  |  |  |  |  | no enzymatic digestion (in the case of pepsin) | open-chain lysobactin; also recorded: β-hydroxyaspartate unit |  |  |
| D-Leucyl-N-1-{(3S,6S,12S,15S,18R,21S,24S,27S,28R)-6-[(1S)-2-amino-1-hydroxy-2-oxoethyl-]18-(3-{[amino(imino)methyl]amino}propyl)-12-[(1S)-1-hydroxyethyl]-3-(hydroxymethyl)-24-[(1R)-1-hydroxy-2-methylpropyl]-21-isobutyl-15-[(1S)-1-methylpropyl]-2,5,8,11,14,17,20,23,26-nonaoxo-28-phenyl-1-oxa-4,7,10,13,16,19,22,25-octaazacyclo-octacosan-27-yl}-L-leucinamide Bistrifluoroacetate [Lysobactin] |  |  |  |  |  |  |  |  |  |  | strong activity | no (such as in the case of pepsin, for example) or only inadequate enzymatic digestion |
